Source: patent US9187411B2, “Leukotriene B4 antagonist compound” (Eli Lilly and Company, priority 2012, dated 2015)

Biological target: T1, PPARγ (Homo sapiens, UniProt P37231)
T1 construct: made in house; host or cells: Sf9 insect cells (baculovirus), crude cell lysate
T1 sequence (P37231 1-505): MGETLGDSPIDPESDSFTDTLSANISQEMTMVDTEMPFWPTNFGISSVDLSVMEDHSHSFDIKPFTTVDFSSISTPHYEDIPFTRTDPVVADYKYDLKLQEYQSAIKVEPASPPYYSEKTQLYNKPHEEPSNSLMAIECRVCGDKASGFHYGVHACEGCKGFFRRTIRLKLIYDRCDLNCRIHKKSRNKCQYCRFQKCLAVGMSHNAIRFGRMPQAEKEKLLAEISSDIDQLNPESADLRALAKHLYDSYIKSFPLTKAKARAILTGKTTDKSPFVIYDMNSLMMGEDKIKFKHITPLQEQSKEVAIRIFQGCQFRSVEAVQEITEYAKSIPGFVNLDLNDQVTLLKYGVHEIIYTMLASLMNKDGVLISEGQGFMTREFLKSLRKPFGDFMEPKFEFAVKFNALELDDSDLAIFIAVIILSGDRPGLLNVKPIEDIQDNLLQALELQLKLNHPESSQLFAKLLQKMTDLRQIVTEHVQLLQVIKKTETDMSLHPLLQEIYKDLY
T1 sequence (P19793 1-462 partner): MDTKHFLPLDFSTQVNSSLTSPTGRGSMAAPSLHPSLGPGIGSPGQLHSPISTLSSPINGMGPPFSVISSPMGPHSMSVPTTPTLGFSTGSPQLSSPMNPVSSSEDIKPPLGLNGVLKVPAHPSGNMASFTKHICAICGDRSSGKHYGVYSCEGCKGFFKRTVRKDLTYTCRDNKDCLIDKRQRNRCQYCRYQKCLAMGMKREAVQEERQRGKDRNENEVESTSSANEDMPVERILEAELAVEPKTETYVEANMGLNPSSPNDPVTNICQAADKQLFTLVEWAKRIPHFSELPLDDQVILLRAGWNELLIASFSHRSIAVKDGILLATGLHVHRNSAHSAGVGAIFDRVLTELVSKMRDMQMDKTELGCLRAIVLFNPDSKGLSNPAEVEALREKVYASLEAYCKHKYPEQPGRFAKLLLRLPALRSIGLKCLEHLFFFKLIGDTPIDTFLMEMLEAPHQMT
Assay: PPAR gamma binding assay (SPA)
Details: n=2, read-out: Ki PPAR γ binding
Source text: The nucleotide sequences encoding full-length PPARα receptor DNA (National Center for Biotechnology Information (NCBI) Reference Sequence NM_005036.4), PPARδ receptor DNA (NCBI Reference Sequence NM_006238.4), PPARγ receptor DNA (NCBI Reference Sequence NM_015869.4) and Retinoid X Receptor (RXR) α DNA (NCBI Reference Sequence NM_002957.4) are synthesized and inserted into pFastBacHTb (Invitrogen) vector in-framed with the N-terminal HIS tag from the vector. […] The protein concentration is determined by Bradford assay using BSA as the standard.
Binding Affinities of Compounds for the PPAR α, δ, γ Receptors are Assessed Using Scintillation Proximity Assay (SPA) Technology.
Biotinylated oligonucleotide(DR2) ^5′[…]^3′ (SEQ ID NO: 1) is used for binding of receptors to Yttrium silicate streptavidin-coated SPA beads (Perkin Elmer). The PPAR α, δ, γ and Retinoid X Receptor (RXR) α receptors (endogenously expressed as heterodimers) are cell lysates from Baculovirus expression systems in Sf9 cells. […] Non-specific binding is determined in the presence of 10000 nM unlabeled GW2331 (Kliewer, S. A. et al Proc. Natl. Acad. Sci. USA (1997), 94: 4318-4323) for the alpha and delta receptors and 2-methyl-2-[4-[3-[propyl[(5-pyridin-2-ylthiophen-2-yl)sulfonyl]amino]-propyl]phenoxy]propanoic (WO 2004/073606) for the gamma receptor. […]

SMILES: CCCc1c(NC(=O)CC(C)(C)C(=O)[O-])cccc1OCCCOc1cc(O)c(-c2ccc(F)cc2)cc1CC.[Na+] [Example 2, Sodium 4-[[3-[3-[2-ethyl-4-(4-fluorophenyl)-5-hydroxy-phenoxy]propoxy]-2-propyl-phenyl]amino]-2,2-dimethyl-4-oxo-butanoate]
- Ki: 1380 nM
